Experimental data: paper PMC6381024, “Probing Anti-inflammatory Properties Independent of NF-κB Through Conformational Constraint of Peptide-Based Interleukin-1 Receptor Biased Ligands” (Frontiers in Chemistry, 2019)

What was measured:
COX2 = assay: qPCR of IL-1β-induced COX-2 (PTGHS2) expression in HEK-Blue IL-33/IL-1β cells; assay type: cell-based, human; design: key to qPCR COX2 (heatmap grade of inhibition): 0: No effect; No effect 01234 Maximum inhibition/efficacy; No effect 01234 Maximum inhibition/efficacy; No effect 01234 Maximum inhibition/efficacy; 4: Maximum inhibition/efficacy; details: for qPCR COX2 (heatmap grade of inhibition): HEK-Blue cells, peptide 10^-6 M or Kineret 1.0 mg/mL 30 min, then IL-1β 100 ng/mL 4 h (legend: overnight); for Suppression of COX2 transcription: HEK blue cells, 10^-6 M pre-treatment, IL-1β stimulation
Procedure: HEK-Blue IL-33/IL-1β cells were purchased from InvivoGen (San Diego, CA) and used at passages under 15. HEK-Blue cells were cultured in DMEM growth medium supplemented with 10% serum, 50 U/mL penicillin, […] streptomycin, […] zeocin, and […] hygromycin. Cells were grown in regular conditions (37°C, 5% CO2). Cells were serum starved overnight and treated with 100 ng/mL IL-1β for 4 h. Cells were pre-incubated for 30 min with peptides 1, 5, or 6 (10^−6M) or Kineret (1.0 mg/mL) prior to the experiments to reach equilibrium (n = 4 each treatment). Cells were harvested and incubated for 5 min in RIBOzol (AMRESCO). RNA was extracted according to manufacturer's protocol and RNA concentration and integrity were measured with a NanoDrop 1,000 spectrophotometer. A total of 500 ng RNA was used to synthetize cDNA using iScript Reverse Transcription SuperMix (Bio-Rad, Hercules, CA). Quantitative gene expression analysis was performed on Stratagene MXPro3000 (Stratagene) with SYBR Green Master Mix (Bio-Rad). Gene expression levels were normalized to 18S universal primer (Ambion Life Technology, Burlington ON, Canada). Genes analyzed include IL1β, IL6, and PTGHS2 [Prostaglandin H synthetase 2 or cyclooxygenase-2 (COX-2)]. Data are representative of 3 experiments (each with n = 4 per treatment group).
Figure 8 The effects of peptides 1, 5, and 6 on the expression of pro-inflammatory genes. HEK-Blue cells were pre-treated with peptides 1, 5, and 6 as above and stimulated with IL-1β overnight. qPCR was performed on cell lysates using 18S rRNA as internal control. Graphs are sorted in columns by gene of interest (COX-2, IL-1β, or IL-6) and rows by peptide configuration [(3R) or (3S)]. Results are representative of an average of 3 independent experiments (each with n = 4 per treatment group) and are expressed as a fold-change of the non-stimulated control: ^*p < 0.05, ^**p < 0.01, ^***p < 0.001, ^****p < 0.0001 compared to group treated only with IL-1β. Treatment groups that are not labeled with asterisks are statistically non-significant compared to group treated only with IL-1β.

ROCK2 = assay: IL-1β-induced ROCK2 phosphorylation, Western blot in RAW Blue cells; assay type: cell-based; design: key to Western Blot ROCK2 (heatmap grade of inhibition): 0: No effect; No effect 01234 Maximum inhibition/efficacy; No effect 01234 Maximum inhibition/efficacy; No effect 01234 Maximum inhibition/efficacy; 4: Maximum inhibition/efficacy; details: for Western Blot ROCK2 (heatmap grade of inhibition): RAW Blue cells, peptide 10^-6 M or Kineret 1.0 mg/mL 30 min, then IL-1β 100 ng/mL 15 min
Procedure: RAW Blue cells (Invivogen) were grown under standard conditions (37°C, 5% CO2) and maintained under passage number 15. Cells were equilibrated with 1, 5, or 6 (10^−6M) or Kineret (1.0 mg/mL) for 30 min, after which time they were exposed to IL-1β (100 ng/mL) for 15 min. Cells were harvested and lysed on ice for 30 min using a radioimmunoprecipitation assay buffer (Cell Signaling) supplemented with 1 mM phenylmethylsulfonyl fluoride (PMSF) and cOmplete™ EDTA-free protease inhibitor cocktail (Roche, Mannheim, Germany, prepared according to the manufacturer's instructions). Protein concentrations were determined using a Bradford protein assay (Bio-Rad) on 96-well plates with a microplate reader (EnVision Multilabel reader) measuring OD at […]. Bovine serum albumin serial dilutions were used to generate a standard curve. Lysates were then mixed with 4X reducing sample buffer (Bio-Rad).
Lysates were loaded (30 μg protein per well) in a 5% acrylamide stacking gel, and samples were electrophoresed in a 12% acrylamide resolving gel for 1.5 h at 120 V, followed by a 1 h transfer onto polyvinylidene difluoride (PDVF) membranes at 100 V. Membranes were blocked and incubated with 1:1,000 dilution of primary antibody and 1:20,000 dilution of secondary antibodies according to the manufacturer's instructions. Antibodies used were for phospho-p38 MAPK (Cell Signaling, #9211), p38 MAPK (Cell Signaling, #9212), SAPK/JNK (Cell Signaling, #9252), phospho-SAPK/JNK (Cell Signaling, #9251), ROCK2 (Thermo Fisher Scientific PA5-21131), phospho-ROCK2 (Thermo Fisher Scientific PA5-34895), and goat anti-rabbit conjugated to horseradish peroxidase (Abcam, ab6721). Membranes were imaged using an Amersham Imager 600 (GE Healthcare) using Clarity Western ECL Substrate (Bio-Rad). The intensity of protein bands was quantified using ImageJ and standardized using total (phosphorylated + non-phosphorylated) protein content. Data are representative of three independent experiments.
Figure 7 The effects of peptides 1, 5, and 6 on IL-1β-induced phosphorylation of JNK, ROCK2, and p38. Graphical representations of band density analysis of Western Blots, sorted into columns based on protein of interest (JNK, ROCK2, or p38) and rows by peptide configuration [(3R-) or (3S)]. RAW-blue cells were pretreated with peptides 1, 5, 6, Kineret, or vehicle for 30 min and then stimulated with IL-1β for 15 min. Images of representative Western Blots can be found in the Supplementary Figure 1. Results shown are the average of 3 independent experiments: ^*p < 0.05, ^**p < 0.01, ^***p < 0.001, ^****p < 0.0001 compared to group treated only with IL-1β. Treatment groups that are not labeled with asterisks are statistically non-significant compared to group treated only with IL-1β.

Row | Substance | qPCR COX2 (heatmap grade of inhibition) (COX2) | Western Blot ROCK2 (heatmap grade of inhibition) (ROCK2) | Suppression of COX2 transcription (COX2) | Inhibition of IL-1β-induced ROCK2 phosphorylation (ROCK2; RAW-blue cells, 10^-6 M, 30 min, then IL-1β 15 min)
1 | H-D-Arg-D-Tyr-(3S,4R)-Hgl-D-Val-D-Glu-D-Leu-D-Ala-NH2 [[(3S,4R)-Hgl^3]-1] | 4 | 3 |  | 
2 | Kineret: FDA-approved recombinant IL-1 receptor antagonist | 4 | 4 |  | 
3 | H-D-Arg-D-Tyr-(3R,4R)-Hgl-D-Val-D-Glu-D-Leu-D-Ala-NH2 [[(3R,4R)-Hgl^3]-1] | 4 | 4 |  | 
4 | H-D-Arg-D-Tyr-(3R,4S)-Hgl-(S)-Val-D-Glu-D-Leu-D-Ala-NH2 [[(3R,4S)-Hgl^3-(S)-Val^4]-1] | 4 | 2 |  | 
5 | H-D-Arg-D-Tyr-(3R,4R)-Hgl-(S)-Val-D-Glu-D-Leu-D-Ala-NH2 [[(3R,4R)-Hgl^3-(S)-Val^4]-1] | 4 | 4 |  | 
6 | H-D-Arg-D-Tyr-(S)-Agl-(S)-Val-D-Glu-D-Leu-D-Ala-NH2 [[(3S)-Agl^3-(S)-Val^4]-1] | 1 | 3 | ability to suppress the transcription of all three genes was lost | 
7 | H-D-Arg-D-Tyr-D-Thr-D-Val-D-Glu-D-Leu-D-Ala-NH2 [Peptide 1] | 4 | 4 | strong suppression of transcription of all three genes | inhibited the effects of all three kinases
8 | H-D-Arg-D-Tyr-(S)-Agl-D-Val-D-Glu-D-Leu-D-Ala-NH2 [[(3S)-Agl^3]-1] | 4 | 0 |  | 
9 | H-D-Arg-D-Tyr-(R)-Agl-(S)-Val-D-Glu-D-Leu-D-Ala-NH2 [[(3R)-Agl^3-(S)-Val^4]-1] | 1 | 2 | ability to suppress the transcription of all three genes was lost | 
10 | H-D-Arg-D-Tyr-(R)-Agl-D-Val-D-Glu-D-Leu-D-Ala-NH2 [[(3R)-Agl^3]-1] | 3 | 0 |  | 
11 | H-D-Arg-D-Tyr-(3R,4S)-Hgl-D-Val-D-Glu-D-Leu-D-Ala-NH2 [[(3R,4S)-Hgl^3]-1] | 4 | 4 |  | 
